Patent publication US20140081017A1, “Histone Deacetylase Inhibitors for Enhancing Activity of Antifungal Agents” (METHYLGENE INC., priority 2012, published 2014)
Converted amounts (≈) assume the structure as drawn. Read-outs that look alike come from different tables or passages of the source.

What was measured:
Candida albicans = test: Minimal Inhibitory Concentration (MIC) assay, broth microdilution per CLSI; format: cell-based; conditions: Candida albicans, read-out: Minimum Inhibitory Concentrations against Yeast Isolates, Candida albicans;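 also: two read times 24 hr and 48 hr of incubation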
Procedure, shortened: (§1)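 CLSI broth microdilution in RPMI/0.165 M MOPS pH 7.0; 2-fold DMSO dilution series; inoculum 0.5 McFarland diluted 1:100; 35° C, ~24-48 hr; MIC = lowest conc. with no visible growth, read from plate bottom.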

Candida glabrata = test: as above; format: cell-based; conditions: Nakaseomyces glabratus, read-out: Minimum Inhibitory Concentrations against Yeast Isolates, Candida glabrata;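 also: two read times 24 hr and 48 hr of incubation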
Procedure, shortened: as §1

Candida parapsilosis = test: as above; format: cell-based; conditions: Lodderomyces parapsilosis, read-out: Minimum Inhibitory Concentrations against Yeast Isolates, Candida parapsilosis;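 also: two read times 24 hr and 48 hr of incubation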
Procedure, shortened: as §1

C. glabrata = test: Checkerboard FIC assay in combination with fluconazole (MIC alone and in combination, FICI); format: cell-based, Candida glabrata; conditions: for FICI of combination resulting in fluconazole MIC of: 2 ug/mL / FICI of combination resulting in fluconazole MIC of: 4 ug/mL / FICI of combination resulting in fluconazole MIC of: 8 ug/mL: FICI calculated using a fluconazole MIC of 16 μg/mL; for FICI of combination resulting in fluconazole MIC of: 2 ug/mL (value in parenthesis) / FICI of combination resulting in fluconazole MIC of: 4 ug/mL (value in parenthesis) / FICI of combination resulting in fluconazole MIC of: 8 ug/mL (value in parenthesis): FICI using a fluconazole MIC of 128 μg/mL; for MIC: Nakaseomyces glabratus; for Multiple of compound MIC to synergize fluconazole MIC to 2 ug/mL / Multiple of compound MIC to synergize fluconazole MIC to 4 ug/mL / Multiple of compound MIC to synergize fluconazole MIC to 8 ug/mL: concentration in combination as multiple of the compound's MIC alone; for Multiple of compound MIC to synergize fluconazole MIC to 2 ug/mL: fluconazole MIC 2 ug/mL; for Multiple of compound MIC to synergize fluconazole MIC to 4 ug/mL: fluconazole MIC 4 ug/mL; for Multiple of compound MIC to synergize fluconazole MIC to 8 ug/mL: fluconazole MIC 8 ug/mL; for Concentration of Methylgene compound to synergize fluconazole MIC to 2 ug/mL / Concentration of Methylgene compound to synergize fluconazole MIC to 4 ug/mL / Concentration of Methylgene compound to synergize fluconazole MIC to 8 ug/mL: in combination with fluconazole; for Concentration of Methylgene compound to synergize fluconazole MIC to 2 ug/mL: fluconazole MIC lowered to 2 ug/mL; for Concentration of Methylgene compound to synergize fluconazole MIC to 4 ug/mL: fluconazole MIC lowered to 4 ug/mL; for Concentration of Methylgene compound to synergize fluconazole MIC to 8 ug/mL: fluconazole MIC lowered to 8 ug/mL
Procedure, shortened: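 C. glabrata was tested by CLSI broth microdilution checkerboard, crossing 2-fold dilutions of compound with 2-fold dilutions of fluconazole. The medium was RPMI with 0.165 M MOPS at pH 7.0, inoculated from a 0.5 McFarland suspension diluted 1:100, then incubated about 48 h at 35 °C. Single-agent MICs gave the FIC and FICI values.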

[1] = 24 hr reading (first value of cell 24 hr/48 hr)
[2] = 48 hr reading (second value of cell 24 hr/48 hr)
[3] = MIC of the example compound alone against C. glabrata in the checkerboard assay, approximately 48 hr, read-out: Methylgene MIC
[4] = test compound alone, C. glabrata, approx. 48 hr at 35° C., read-out: Compound MIC

| Structure (SMILES) | MIC (Candida albicans; [1]) [mg/L] | MIC (Candida albicans; [2]) [mg/L] | MIC (Candida glabrata; [1]) [mg/L] | MIC (Candida glabrata; [2]) [mg/L] | MIC (Candida parapsilosis; [1]) [mg/L] | MIC (Candida parapsilosis; [2]) [mg/L] | FICI of combination resulting in fluconazole MIC of: 2 ug/mL (C. glabrata; C. glabrata) | FICI of combination resulting in fluconazole MIC of: 4 ug/mL (C. glabrata; C. glabrata) | FICI of combination resulting in fluconazole MIC of: 8 ug/mL (C. glabrata; C. glabrata) | FICI of combination resulting in fluconazole MIC of: 2 ug/mL (value in parenthesis) (C. glabrata; C. glabrata) | FICI of combination resulting in fluconazole MIC of: 4 ug/mL (value in parenthesis) (C. glabrata; C. glabrata) | FICI of combination resulting in fluconazole MIC of: 8 ug/mL (value in parenthesis) (C. glabrata; C. glabrata) | MIC (C. glabrata; [3]) [mg/L] | MIC (C. glabrata; [4]) [mg/L] | Multiple of compound MIC to synergize fluconazole MIC to 2 ug/mL (C. glabrata) | Multiple of compound MIC to synergize fluconazole MIC to 4 ug/mL (C. glabrata) | Multiple of compound MIC to synergize fluconazole MIC to 8 ug/mL (C. glabrata) | Concentration of Methylgene compound to synergize fluconazole MIC to 2 ug/mL (C. glabrata; C. glabrata) [mg/L] | Concentration of Methylgene compound to synergize fluconazole MIC to 4 ug/mL (C. glabrata; C. glabrata) [mg/L] | Concentration of Methylgene compound to synergize fluconazole MIC to 8 ug/mL (C. glabrata; C. glabrata) [mg/L] |
| --- | --- | --- | --- | --- | --- | --- | --- | --- | --- | --- | --- | --- | --- | --- | --- | --- | --- | --- | --- | --- |
| O=C(Cc1ccc(CCCC(F)c2ccccc2)cc1)NO (stereo not drawn) [Example 26, 2-(4-(4-fluoro-4-phenylbutyl)phenyl)-N-hydroxyacetamide] | 4 (≈ 13.3 µM) | 8 (≈ 26.5 µM) | 2 (≈ 6.64 µM) | 8 (≈ 26.5 µM) | 4 (≈ 13.3 µM) | 8 (≈ 26.5 µM) | 0.313 | 0.250 | 0.313 | 0.266 | 0.156 | 0.125 | 8 | 8 | (¼x) | (⅛x) | ( 1/16x) | 2 | 1 | 0.5 |
| COCCOCCOCCOCCC(=O)Nc1ccc(CCCCc2ccc(CC(=O)NO)cc2)cc1 [Example 37, N-(4-(4-(4-(2-(hydroxyamino)-2-oxoethyl)phenyl)butyl)phenyl)-2,5,8,11-tetraoxatetradecan-14-amide] | > 64 | > 64 | 64 (≈ 124 µM) | > 64 | > 64 | > 64 | 0.375 | 0.500 | 0.625 | 0.266 | 0.281 | 0.188 | 4 | 4 | (¼x) | (¼x) | (⅛x) | 1 | 1 | 0.5 |
| Nc1cccc(CCCCc2ccc(CC(=O)NO)cc2)c1 [Example 32, 2-(4-(4-(3-aminophenyl)butyl)phenyl)-N-hydroxyacetamide] | 32 (≈ 107 µM) | 32 (≈ 107 µM) | > 32 | > 32 | 32 (≈ 107 µM) | 32 (≈ 107 µM) | 0.625 | 0.500 | 0.625 | 0.516 | 0.281 | 0.188 | 2 | 2 | (½x) | (¼x) | (⅛x) | 1 | 0.5 | 0.25 |

Now from value to compound:

| MIC (Candida albicans; [1]) [mg/L] | MIC (Candida albicans; [2]) [mg/L] | MIC (Candida glabrata; [1]) [mg/L] | MIC (Candida glabrata; [2]) [mg/L] | MIC (Candida parapsilosis; [1]) [mg/L] | MIC (Candida parapsilosis; [2]) [mg/L] | FICI of combination resulting in fluconazole MIC of: 2 ug/mL (C. glabrata; C. glabrata) | FICI of combination resulting in fluconazole MIC of: 4 ug/mL (C. glabrata; C. glabrata) | FICI of combination resulting in fluconazole MIC of: 8 ug/mL (C. glabrata; C. glabrata) | FICI of combination resulting in fluconazole MIC of: 2 ug/mL (value in parenthesis) (C. glabrata; C. glabrata) | FICI of combination resulting in fluconazole MIC of: 4 ug/mL (value in parenthesis) (C. glabrata; C. glabrata) | FICI of combination resulting in fluconazole MIC of: 8 ug/mL (value in parenthesis) (C. glabrata; C. glabrata) | MIC (C. glabrata; [3]) [mg/L] | MIC (C. glabrata; [4]) [mg/L] | Multiple of compound MIC to synergize fluconazole MIC to 2 ug/mL (C. glabrata) | Multiple of compound MIC to synergize fluconazole MIC to 4 ug/mL (C. glabrata) | Multiple of compound MIC to synergize fluconazole MIC to 8 ug/mL (C. glabrata) | Concentration of Methylgene compound to synergize fluconazole MIC to 2 ug/mL (C. glabrata; C. glabrata) [mg/L] | Concentration of Methylgene compound to synergize fluconazole MIC to 4 ug/mL (C. glabrata; C. glabrata) [mg/L] | Concentration of Methylgene compound to synergize fluconazole MIC to 8 ug/mL (C. glabrata; C. glabrata) [mg/L] | Structure (SMILES) |
| --- | --- | --- | --- | --- | --- | --- | --- | --- | --- | --- | --- | --- | --- | --- | --- | --- | --- | --- | --- | --- |
| > 8 | > 8 | > 8 | > 8 | > 8 | > 8 | 0.375 | 0.500 | 0.625 | 0.266 | 0.281 | 0.188 | 16 | 16 | (¼x) | (¼x) | (⅛x) | 4 | 4 | 2 | O=C(Cc1ccc(CCCCc2ccc(NC(=O)CO)cc2)cc1)NO [Example 36, N-hydroxy-2-(4-(4-(4-(2-hydroxyacetamido)phenyl)butyl)phenyl)acetamide] |
| > 64 | > 64 | 16 (≈ 36.1 µM) | 16 (≈ 36.1 µM) | > 64 | > 64 | 0.563 | 0.375 | 0.375 | 0.516 | 0.281 | 0.188 | 16 | 16 | (½x) | (¼x) | (⅛x) | 8 | 4 | 2 | CN(C)CCSCC(=O)Nc1ccc(CCCCc2ccc(CC(=O)NO)cc2)cc1 [Example 38, 2-(2-(dimethylamino)ethylthio)-N-(4-(4-(4-(2-(hydroxyamino)-2-oxoethyl)phenyl)butyl)phenyl)acetamide] |
| > 8 | > 8 | 8 (≈ 19 µM) | > 8 | > 8 | > 8 | 0.313 | 0.250 | 0.375 | 0.266 | 0.156 | 0.188 | > 8 | > 8 |  |  |  | 4 | 2 | 2 | Cn1cnc(CNC(=O)c2ccc(CCCCc3ccc(CC(=O)NO)cc3)cc2)c1 [Example 23, 4-(4-(4-(2-(hydroxyamino)-2-oxoethyl)phenyl)butyl)-N-((1-methyl-1H-imidazol-4-yl)methyl)benzamide] |
